Where “and” joins values, the source holds several entries; their conditions need not be identical. Equal entries are not always repeated.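 Compound exposure: 48 hours, 5 concentrations, 96-well plates. Here, GI50 denotes the concentration required for 50% inhibition of growth. TGI is the concentration that stops growth completely.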
How the values were obtained:
Assay in all cases: inhibition of tumour cell growth, NCI panel, 48 h
A498 renal = test system: A498 renal
HT29 colon = test system: HT29 colon
UACC-257 melanoma = test system: UACC-257 melanoma
CCRF-CEM leukemia = test system: CCRF-CEM leukemia
IGROV1 ovarian = test system: IGROV1 ovarian
HCT-15 colon = test system: HCT-15 colon
RPMI-8226 leukemia = test system: RPMI-8226 leukemia
NCI-H226 lung = test system: NCI-H226 lung

SMILES | GI50 (A498 renal) | TGI (A498 renal) | GI50 (HT29 colon) | TGI (HT29 colon) | GI50 (UACC-257 melanoma) | TGI (UACC-257 melanoma) | GI50 (CCRF-CEM leukemia) | TGI (CCRF-CEM leukemia) | GI50 (IGROV1 ovarian) | GI50 (HCT-15 colon) | TGI (HCT-15 colon) | GI50 (RPMI-8226 leukemia) | TGI (RPMI-8226 leukemia) | GI50 (NCI-H226 lung) | TGI (NCI-H226 lung) | TGI (IGROV1 ovarian)
CN1C(=O)C(N=Nc2ccc([N+](=O)[O-])cc2)SC1=S (centres undefined) | 4.1 µM and 4.16 µM | 18.3 µM and 51 µM | 3.63 µM and 10.8 µM | 33.7 µM and > 100 µM | 3.63 µM and 10.9 µM | 27.1 µM and 54.4 µM | 6.51 µM | > 100 µM | 1.99 µM and 11.4 µM | 2.63 µM and 6.8 µM | > 100 µM | 2.62 µM and 2.09 µM | 52.4 µM and 18 µM | 21 µM and 18 µM | > 100 µM | 
COc1cc2c(Nc3ccc(-c4ccc(N)cc4)cc3)ncnc2c(OC)c1OC | 15.1 µM | 56 µM | 8.02 µM | > 81.7 µM | 4.58 µM | > 100 µM | 6.09 µM | > 100 µM | 12.6 µM | 0.607 µM | > 85.7 µM | 3.78 µM | 41.4 µM | 21 µM | > 100 µM | > 100 µM
CS(=O)(=O)Nc1cc(-c2ccc3ncc(C#N)c(Nc4ccc(F)c(Cl)c4)c3c2)cnc1Cl | 0.0398 µM | 0.302 µM | 0.29 µM | 2.3 µM | 0.194 µM | 2.14 µM | 0.0911 µM | > 31 µM | 0.0609 µM | 0.167 µM | 4.91 µM | 0.0833 µM | 0.469 µM | 0.258 µM | 2.16 µM | 0.372 µM
CC[C@]12C=CCN3CC[C@@]4(c5ccc(OC)cc5N(C)[C@H]4[C@@](O)(C(=O)OC)[C@@H]1OC(=O)CCC(=O)O[C@H]1CC[C@H]4[C@@H]5CCC6=CC(=O)CC[C@@H]6[C@H]5CC[C@]14C)[C@@H]32 | 1.38 µM | 9.42 µM | 1.6 µM | 11.4 µM | 2.65 µM | > 50 µM | 1.66 µM | > 50 µM | 0.973 µM | 1.51 µM | > 50 µM | 1.07 µM | 3.11 µM | 2.07 µM | > 50 µM | 3.13 µM
C=C(C)COc1ccc2c(c1)CCC1C2CCC2(C)C(=O)/C(=N/O)CC12 (centres undefined) |  | 24.3 µM |  | 2.72 µM |  | 23.5 µM |  | 6.61 µM |  |  | 7.52 µM |  | 7.54 µM |  | 26.6 µM | 4.6 µM
CC(C)c1cnc(-c2cc(Cl)ccc2F)cc1Nc1ccncc1C(=O)NC(CO)CO | 2.28 µM | 19.7 µM | 14.6 µM | 33.7 µM | 16.3 µM | 33.7 µM | 11.6 µM | 54.2 µM | 10.3 µM | 12.9 µM | 26.9 µM | 13.5 µM | 52.6 µM | 13.6 µM | 34.8 µM | 35.4 µM
Cn1c2c(c3ccccc31)CCN1C[C@@H]3CCCC[C@H]3C[C@@H]21 | 2.08 µM | 7.07 µM | 2.61 µM | 8.06 µM | 8.14 µM | > 100 µM | 4.77 µM | > 100 µM | 3.45 µM | 2.55 µM | > 100 µM | 3.06 µM | > 26.3 µM | 2.75 µM | > 26.1 µM | > 54.6 µM
Cc1cc(S(=O)(=O)Nc2nc3ccccc3c(=O)n2Cc2ccco2)c(S)cc1Cl | 33.1 µM | > 100 µM | 46.2 µM | > 100 µM | > 100 µM | > 100 µM | 29.2 µM | > 100 µM | 36.9 µM | 55 µM | > 100 µM | 27 µM | > 100 µM | 83.6 µM | > 100 µM | > 100 µM
CCN1CCN(Cc2ccc(Nc3ncc(F)c(-c4cc(F)c5nc(C)n(C(C)C)c5c4)n3)nc2)CC1 | 1.05 µM | 50 µM | 0.268 µM | 10.8 µM | 5.45 µM | 7.97 µM | 1.14 µM | 15 µM | 2.03 µM | 0.47 µM | 11.7 µM | 6.68 µM | 19.1 µM | 0.109 µM | 25.2 µM | 13.1 µM
CCOC(=O)C#Cc1cccc(C#CC(=O)OCC)c1 |  | 36.2 µM |  | 9.07 µM |  | 24.2 µM |  | 6.34 µM |  |  | 16.1 µM |  | 13 µM |  | 22.1 µM | 32.5 µM
COc1cc(-c2oc3c(OC)c(O)c(OC)c(O)c3c(=O)c2OC)cc(OC)c1OC |  | > 100 µM |  | > 100 µM |  | > 100 µM |  | > 100 µM |  |  | > 100 µM |  | > 100 µM |  | > 100 µM | > 100 µM
CC(=O)Oc1ccc(C2OC(c3ccc4ccccc4c3OC(C)=O)=NN2C(C)=O)c(OC(C)=O)c1 (centres undefined) | 1.73 µM | 17.5 µM | 1.62 µM | > 52.8 µM | 0.331 µM | 6.59 µM | 0.32 µM | > 100 µM | 0.348 µM | 0.294 µM | > 68 µM | 0.568 µM | > 39.5 µM | 0.515 µM | > 38.9 µM | 15.1 µM
CCc1ccc(Oc2c(-c3ccc(OCCc4cccc(C(F)(F)F)c4)cc3O)n[nH]c2C(F)(F)F)cc1 | 5.93 µM | 12.8 µM | 8.13 µM | 14.9 µM | 4.58 µM | 10.6 µM | 2.55 µM | 9.18 µM | 2.51 µM | 1.96 µM | 6.89 µM | 1.8 µM | 7.55 µM | 6.9 µM | 14.3 µM | 8.72 µM
Cc1c(O)cccc1C(=O)N[C@@H](CSc1ccccc1)[C@H](O)CN1C[C@H]2CCCC[C@H]2C[C@H]1C(=O)NC(C)(C)C | 10.5 µM and 4.26 µM | 24.9 µM and 15.3 µM | 3.06 µM and 5.65 µM | 12 µM and 19.9 µM | 3.66 µM and 6.84 µM | 13.8 µM and 24.7 µM | 2.76 µM and 8.59 µM | 6.83 µM and > 27 µM | 3.45 µM and 2.62 µM | 1.77 µM and 3.11 µM | 13.2 µM and 12.9 µM | 2.23 µM and 2.01 µM | 4.69 µM and 7.21 µM | 4.84 µM and 5.57 µM | 14 µM and 16.5 µM | 32 µM and 7.74 µM
CC(C)[C@@]12C[C@@H](OC(=O)COC(=O)c3ccccc3)[C@@](C)(O1)[C@@H]1CC[C@@H](C)[C@H]1[C@@H]2OC(=O)/C=C/c1ccccc1 | 0.153 µM | 0.529 µM | > 100 µM | > 100 µM | > 100 µM | > 100 µM | > 100 µM | > 100 µM | > 100 µM | > 89 µM | > 100 µM | 82.1 µM | > 100 µM | 18.7 µM | > 100 µM | > 100 µM
Nc1c(C(=O)Nc2cccc(Cl)c2)sc2nc3c(cc12)C(O)CCC3 (centres undefined) | 0.182 µM | 13.6 µM | 0.315 µM | 12.2 µM |  |  | 0.31 µM | 17.3 µM | 0.992 µM | 0.37 µM | > 100 µM | 0.36 µM | 5.01 µM | 2.68 µM | 38.1 µM | 40.7 µM
